Experimental data reported in patent US12484608B2, “Nutritional composition and infant formula for promoting de novo myelination” (SOCIETE DES PRODUITS NESTLE S.A., priority 2015, dated 2025).

Assays:
[1] = test system: brain myelination; test: Cross-sectional correlation of infant formula nutrient content with brain myelin content (mcDESPOT MRI, myelin water fraction); assay type: in vivo, human; conditions: formula-fed children up to 5 years
Description: MRI (Magnetic Resonance Imaging): MRI brain scans of infants and children between 0 and 5 years were acquired using a white matter imaging technique. This technique provides a quantitative measure, the Myelin Water Fraction (MWF), which is a surrogate marker of myelin content in the brain. When mapped as a function of time across early childhood, myelination trajectories can be generated.
Each infant was scanned using the mcDESPOT (multicomponent Driven Equilibrium Single Pulse Observation of T1 and T2) white matter imaging technique Deoni et al. (Magn. Reson. Med. 2008, 60:1372-1387), which provides a quantitative measure of the myelin water fraction (MWF)—a measure of myelin content—at each point throughout the brain. All infants were scanned during natural (i.e. non-sedated) sleep using acoustically-muffled mcDESPOT imaging protocols. Total imaging times ranged from 19 minutes for the youngest toddlers to 24 minutes for the older 4 year-old children.
Following image alignment, non-brain signal removal, and correction for main and transmit magnetic field (B0 and B1) inhomogeneities, a three-pool signal model (comprising the myelin-associated water; intra-extra axonal water; and a non-exchanging free-water pool) was fit to the mcDESPOT data to derive voxel-wise MWF maps.
Each child's map was then non-linearly aligned to a study specific template. White matter masks, corresponding to 5 bilateral regions (frontal, temporal, occipital, parietal, and cerebellar WM) as well as the body, genu, and splenium of the corpus callosum were created from common databases, registered to the common template, and superimposed onto each child's MWF map. Mean values for each region were then determined for each child and used for subsequent developmental analysis and trajectory modeling.
From the cohort described above, children up to 5 years of age that were fed different infant formulas during infancy were included in a large correlation analysis to examine the relationship between formula nutrient composition and brain myelination. The 5 most frequently used formulas in that cohort were analyzed for their nutritional composition. A single general linear model (GLM) was constructed that modeled all quantified nutrients and child age.
Spearman rank correlations were then calculated between the nutrient content and myelin content value (adjusted for child age) at each image voxel, or point within the brain. Significance was defined as p<0.05 corrected for type 1 error using a cluster based correction approach. An association or trend was defined as p<0.15. […] To reduce the number of nutritional components in the model, we examined the inter-nutritional correlation. Using a conservative threshold of 0.9, we excluded nutritional components that were highly correlated with each other across the various formulas.

[2] = test system: neural progenitor cell (NPCs); test: Monolayer culture NPC proliferation assay; assay type: cell-based, mouse; conditions: control 262
Description: Monolayer Culture NPC Proliferation Assay (Incorporation of EdU—S Phase Marker
After 24 h, it was ensured that cells had attached to the plate then the medium was carefully removed. 500 μL of compound media plus GF.was added. The cells were cultured for 3 days in appropriate media.
EDU incorporation was measured using Click-iT® EdU Alexa Fluor® 555 Imaging Kit
At the end of day 3 EdU was added to each well at 10 μM for 30 minutes prior to fixation.
For fixation and subsequent immunohistochemical analysis, the medium was removed, the cells were rinsed once with 1×PBS for 5 min, and fixed with 4% PFA in 1×PBS for 15 min at 4° C., then the cells were washed twice with 1×PBS for 5 min, left in 1×PBS, wrapped in foil and leave overnight at 4° C., or staining was proceeded with.
serum, 1×PBS, and 0.1% triton X) added to cover the bottom, the block was kept at room temp for 1 hour. The cells were stained for EDU. The cells were Incubated for 30 min at room temp, in the dark. The cells were washed with 1×PBS and stained with Dapi 1:5000 ul for 15 min. The cells were washed once with 1×PBS, then left in PBS at 4° C., or Imaged immediately using a GE Cytell imager (cell viability

[3] = test system: neural progenitor cell (NPCs); test: Neurosphere counts in 96-well plates; assay type: cell-based, mouse; conditions: control 103
Description: Generation of neural progenitor cell (NPCs) libraries:
dissociation of E14 mouse neocortex
Plating Cells in 96-Well Plates for Neurosphere Counts and Diameters Only
3-4 mLs of cells were taken out of the tilted plate and add to a 15 ml conical. Some of the remaining media was used to rinse down the plate. All remaining media was drawn up and put into a 15 ml conical tube, and Spun at 130G for 5 min. All media was removed. The cells were gently resuspended in 5 mls of warm PBS, spun again. PBS was then removed and the cells were then gently resuspended in 500 μl of Accutase(Corning™ Accutase™ Cell Detachment Solution, #25058CI). The cells were then Pipetted gently with a 1000p tip to break up pellet, and then they were placed in a shaking water bath for 5-10 minutes, after which time they were swirled by hand frequently.
1 ml was taken off to count cells. The cells were spun again. Media was removed from the cell pellet. 1 mls of prepared media (no GF) was added. The cells were pipetted with a 1000 ul pipette. Cell dilutions (24,000
cells/well) in 250 μL of appropriate media were made. Cells were swirled daily and grown for 2 days.
1. The cells were fixed in the hood. For fixation and subsequent immunohistochemical analysis 100 ul of medium was removed and 100 ul 4% PFA in 1×PBS was added to fix the cells whilst counting the neurospheres by hand, then the cells were washed twice with 1×PBS for 5 min, and left in 1×PBS, wrapped in foil and left overnight at 4° C., or Dapi staining was carried out. 100 uL of PBS was removed and 100 uL
in AB staining solution for five min. Imaging was carried out using a GE Cytell imager or LSM 710, Zeiss confocal microscope and the diameters of neurospheres with ImageJ software (National Institutes of Health) was analysed.

[4] = high dose sphingomyelin (Dose 3: 1 μm)
[5] = low dose sphingomyelin (Dose 1: 10 nM)
[6] = med dose sphingomyelin (Dose 2: 100 nM)

CCCCC/C=C\C/C=C\C/C=C\C/C=C\CCCC(=O)O [AA, arachidonic acid] was tested, and the “association with myelination (myelin water fraction) over time in the brain” value [1] was “an association with myelination (myelin water fraction) was observed over time in the brain”.

For [Ca+2] [calcium], the “association with myelination (myelin water fraction) over time in the brain” value [1] was “an association with myelination (myelin water fraction) was observed over time in the brain”.

[Mg+2] [magnesium] was tested, and the “association with myelination (myelin water fraction) over time in the brain” value [1] was “an association with myelination (myelin water fraction) was observed over time in the brain”.

With [P] [phosphorus] the “association with myelination (myelin water fraction) over time in the brain” value [1] was “an association with myelination (myelin water fraction) was observed over time in the brain”.

In the case of [Zn] [zinc], the “association with myelination (myelin water fraction) over time in the brain” value [1] is reported as “an association with myelination (myelin water fraction) was observed over time in the brain”.

iron was tested, and the “association with myelination (myelin water fraction) over time in the brain” value [1] was “an association with myelination (myelin water fraction) was observed over time in the brain”.

In the case of phosphatidylcholine, the “association with myelination (myelin water fraction) over time in the brain” value [1] is reported as “an association with myelination (myelin water fraction) was observed over time in the brain”.

In the case of phosphatidylinositol, the “association with myelination (myelin water fraction) over time in the brain” value [1] is reported as “an association with myelination (myelin water fraction) was observed over time in the brain”.

In the case of sphingomyelin, the “association with myelination (myelin water fraction) over time in the brain” value [1] is reported as “an association with myelination (myelin water fraction) was observed over time in the brain”, the “neuronal proliferation, DAPI” value [2, 4] is reported as 305 and the “neuronal proliferation, DAPI” value [2, 5] is reported as 280. The “neuronal proliferation, DAPI” value [2, 6] was 314, the “number of neurospheres, Average (Mean)” value [3, 4] was 219 and the “number of neurospheres, Average (Mean)” value [3, 5] was 94. For the same molecule, the “number of neurospheres, Average (Mean)” value [3, 6] was 121.

With vitamin B12 the “association with myelination (myelin water fraction) over time in the brain” value [1] was “an association with myelination (myelin water fraction) was observed over time in the brain”.
